Like-named read-outs stand apart in the source and are kept apart here.
Key:
p110α/p85α = p110α/p85α (Homo sapiens (Human), UniProt P42336); test: PI 3-Kinase (human) HTRF assay, p110α/p85α; format: biochemical
p110γ = p110γ (Homo sapiens (Human), UniProt P48736); test: PI 3-Kinase (human) HTRF assay, p110γ; format: biochemical
[1] = in vitro, read-out: PI3K α IC50
[2] = in vitro, read-out: PI3K γ IC50

Sequence of p110γ (P48736 whole entry): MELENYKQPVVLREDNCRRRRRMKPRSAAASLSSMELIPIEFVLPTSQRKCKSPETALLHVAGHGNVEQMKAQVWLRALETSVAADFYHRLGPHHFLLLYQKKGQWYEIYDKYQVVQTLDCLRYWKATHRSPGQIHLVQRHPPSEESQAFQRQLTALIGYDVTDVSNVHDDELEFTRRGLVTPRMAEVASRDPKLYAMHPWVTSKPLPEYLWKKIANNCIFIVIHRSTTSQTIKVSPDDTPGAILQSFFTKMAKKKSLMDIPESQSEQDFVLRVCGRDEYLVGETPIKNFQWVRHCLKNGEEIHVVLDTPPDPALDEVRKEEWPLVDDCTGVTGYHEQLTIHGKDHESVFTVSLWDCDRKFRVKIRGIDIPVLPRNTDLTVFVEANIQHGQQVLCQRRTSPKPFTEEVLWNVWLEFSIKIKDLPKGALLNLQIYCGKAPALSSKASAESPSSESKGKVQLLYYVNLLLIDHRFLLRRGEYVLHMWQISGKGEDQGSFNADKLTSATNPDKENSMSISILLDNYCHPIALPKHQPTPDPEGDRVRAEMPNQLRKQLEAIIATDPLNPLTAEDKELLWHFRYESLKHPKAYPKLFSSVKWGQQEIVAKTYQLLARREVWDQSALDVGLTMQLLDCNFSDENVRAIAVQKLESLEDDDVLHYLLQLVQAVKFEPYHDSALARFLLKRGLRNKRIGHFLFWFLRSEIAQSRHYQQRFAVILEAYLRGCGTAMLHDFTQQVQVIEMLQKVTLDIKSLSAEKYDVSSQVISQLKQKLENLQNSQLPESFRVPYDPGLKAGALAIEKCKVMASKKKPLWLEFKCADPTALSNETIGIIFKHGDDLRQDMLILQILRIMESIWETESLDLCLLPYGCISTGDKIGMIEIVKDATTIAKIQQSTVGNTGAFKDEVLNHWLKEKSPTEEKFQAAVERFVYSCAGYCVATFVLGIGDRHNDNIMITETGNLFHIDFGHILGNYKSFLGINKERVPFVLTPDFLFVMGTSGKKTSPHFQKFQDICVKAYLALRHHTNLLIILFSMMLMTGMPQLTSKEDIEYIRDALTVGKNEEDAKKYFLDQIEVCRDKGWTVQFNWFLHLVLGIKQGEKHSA
Sequence of p110α/p85α (P42336 whole entry): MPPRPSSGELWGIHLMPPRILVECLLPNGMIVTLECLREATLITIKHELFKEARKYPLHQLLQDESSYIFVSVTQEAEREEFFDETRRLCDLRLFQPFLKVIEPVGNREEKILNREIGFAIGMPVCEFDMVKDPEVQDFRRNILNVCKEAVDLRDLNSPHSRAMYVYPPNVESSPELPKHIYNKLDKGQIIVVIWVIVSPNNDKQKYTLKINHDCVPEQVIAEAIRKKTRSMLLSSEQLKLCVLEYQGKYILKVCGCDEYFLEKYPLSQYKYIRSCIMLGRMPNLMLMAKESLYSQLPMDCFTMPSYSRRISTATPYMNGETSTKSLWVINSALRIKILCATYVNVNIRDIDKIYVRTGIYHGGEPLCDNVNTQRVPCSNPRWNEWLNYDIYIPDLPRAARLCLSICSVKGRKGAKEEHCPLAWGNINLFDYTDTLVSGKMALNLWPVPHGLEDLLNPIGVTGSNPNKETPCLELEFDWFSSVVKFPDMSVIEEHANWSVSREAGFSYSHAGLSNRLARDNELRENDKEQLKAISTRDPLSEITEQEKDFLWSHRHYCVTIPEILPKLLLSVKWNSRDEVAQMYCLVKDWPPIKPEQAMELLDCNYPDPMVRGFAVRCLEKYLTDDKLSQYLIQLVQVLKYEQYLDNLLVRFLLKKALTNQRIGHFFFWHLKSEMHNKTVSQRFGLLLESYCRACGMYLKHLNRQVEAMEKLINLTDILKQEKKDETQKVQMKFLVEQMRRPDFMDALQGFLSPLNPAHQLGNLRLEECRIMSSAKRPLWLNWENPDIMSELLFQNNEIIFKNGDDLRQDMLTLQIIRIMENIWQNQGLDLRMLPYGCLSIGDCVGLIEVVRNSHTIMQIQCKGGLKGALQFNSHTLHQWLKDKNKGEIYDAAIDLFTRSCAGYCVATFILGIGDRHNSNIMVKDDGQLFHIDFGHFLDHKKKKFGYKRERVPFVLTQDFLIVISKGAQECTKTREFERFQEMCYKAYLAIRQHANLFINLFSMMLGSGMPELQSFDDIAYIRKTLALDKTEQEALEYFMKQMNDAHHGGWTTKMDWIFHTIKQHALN
Sequence of p110α/p85α (P27986 whole entry partner): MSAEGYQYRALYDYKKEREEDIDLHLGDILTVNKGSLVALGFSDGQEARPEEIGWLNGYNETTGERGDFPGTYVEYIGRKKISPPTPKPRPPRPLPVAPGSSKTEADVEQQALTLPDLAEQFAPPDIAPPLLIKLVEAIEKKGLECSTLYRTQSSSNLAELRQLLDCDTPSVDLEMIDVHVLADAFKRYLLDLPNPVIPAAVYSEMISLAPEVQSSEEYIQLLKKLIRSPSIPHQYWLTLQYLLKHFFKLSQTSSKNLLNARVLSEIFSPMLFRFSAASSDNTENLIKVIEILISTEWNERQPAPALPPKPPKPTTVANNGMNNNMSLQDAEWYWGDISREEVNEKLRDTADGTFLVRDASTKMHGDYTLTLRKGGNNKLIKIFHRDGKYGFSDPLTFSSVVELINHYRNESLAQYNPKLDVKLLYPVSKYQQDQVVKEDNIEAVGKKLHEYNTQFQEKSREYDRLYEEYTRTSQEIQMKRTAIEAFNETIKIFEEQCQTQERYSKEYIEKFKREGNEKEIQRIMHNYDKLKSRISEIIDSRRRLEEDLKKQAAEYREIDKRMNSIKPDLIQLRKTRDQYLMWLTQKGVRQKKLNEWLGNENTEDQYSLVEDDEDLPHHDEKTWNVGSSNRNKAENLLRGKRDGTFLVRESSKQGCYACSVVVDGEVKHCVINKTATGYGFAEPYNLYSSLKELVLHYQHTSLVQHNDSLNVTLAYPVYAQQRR

SMILES | IC50 (p110α/p85α; [1]) [µM] | IC50 (p110α/p85α; read-out: PI3K α IC50) [µM] | IC50 (p110α/p85α; read-out: PI3K α In Vitro IC50) [µM] | also measured
Nc1nc2cc(-c3ccc4ncn(C5CCCC5)c(=O)c4c3)ccc2o1 [compound 256] | < 10 | – | – | –
Nc1ncnc2ccc(-c3ccc4nccc(-c5ccncc5)c4c3)cc12 [compound 8] | – | < 10 | – | IC50 (p110γ; read-out: PI3K γ IC50): < 1 µM
C[C@@H]1CN(c2cnc3ccc(-c4ccc5oc(N)nc5c4)cc3n2)C[C@H](C)O1 [compound 132] | – | < 1 | – | IC50 (p110γ; read-out: PI3K γ IC50): < 10 µM
CCN1CCN(C(=O)c2cnc3ccc(-c4ccc5oc(N)nc5c4)cn23)CC1 [compound 141] | – | < 1 | – | IC50 (p110γ; read-out: PI3K γ IC50): < 10 µM
CC(=O)N1CCC(n2cnc3ccc(-c4ccc5oc(N)nc5c4)cc3c2=O)CC1 [compound 66] | – | < 10 | – | –
Cc1nc(NC(=O)N2CCC[C@H]2C(N)=O)sc1-c1ccc2oc(N)nc2c1 [compound 311] | < 1 | – | – | –
Nc1nc2cc(-c3ccc4ncc(-c5ccc(N6CCOCC6)nc5)nc4c3)ccc2o1 [compound 167] | – | < 10 | – | –
Nc1nc2ccc(-c3ccc4nnc(C(=O)N5CCCC5)n4c3)cc2o1 [compound 305] | < 10 | – | – | –
Nc1nc2cc(-c3ccc4ncc(N5CCC(n6cccn6)CC5)nc4c3)ccc2o1 [compound 337] | < 0.1 | – | – | IC50 (p110γ; [2]): < 1 µM
C[C@@H]1CN(C(=O)c2cnc3ccc(-c4ccc5oc(N)nc5c4)cn23)C[C@H](C)O1 [compound 106] | – | < 10 | – | IC50 (p110γ; read-out: PI3K γ IC50): < 10 µM
Cc1c(-c2ccc3oc(N)nc3c2)ccc2ncc(N3CC(N4CCNCC4)C3)nc12 [compound 386] | < 0.1 | – | – | –
CN1CCN(C(=O)c2cnc3ccc(-c4ccc5oc(N)nc5c4)cc3n2)CC1 [compound 157] | – | < 10 | – | –
CN(C)CCn1cnc2ccc(-c3ccc4oc(N)nc4c3)cc2c1=O [compound 292] | < 10 | – | – | –
Nc1nc2cc(-c3ccc4ncn(CCCN5CCOCC5)c(=O)c4c3)ccc2o1 [compound 290] | < 1 | – | – | –
CC(=O)Nc1nc2cc(-c3ccc4oc(N)nc4c3)ccc2s1 [compound 250] | – | – | – | IC50 (p110γ; [2]): < 0.1 µM
NC(=O)[C@@H]1CCCN1C(=O)c1cnc2ccc(-c3ccc4oc(N)nc4c3)cn12 [compound 259] | < 1 | – | – | IC50 (p110γ; [2]): < 10 µM
Nc1nc2cc(-c3ccc4ncc(N5CCOCC5)n4c3)ccc2o1 [compound 53] | – | < 10 | – | –
CCN(CC)CCn1cnc2ccc(-c3ccc4oc(N)nc4c3)cc2c1=O [compound 224] | < 10 | – | – | –
Cc1ccn(C2CCN(c3cnc4ccc(-c5ccc6oc(N)nc6c5)cc4n3)CC2)n1 [compound 223] | < 0.1 | – | – | IC50 (p110γ; [2]): < 1 µM
CN1CCN(c2nc3cc(-c4ccc5oc(N)nc5c4)ccc3c(=O)n2C)CC1 [compound 79] | – | < 10 | – | –
Nc1nc2cc(-c3ccc4ncc(-c5ccnc(N6CCOCC6)c5)nc4c3)ccc2o1 [compound 150] | – | < 1 | – | –
Cc1c(-c2ccc3oc(N)nc3c2)ccc2ncc(N3CC(N4CCOCC4)C3)nc12 [compound 383] | < 1 | – | – | –
CC1CN(C(=O)c2cnc3ccc(-c4ccc5oc(N)nc5c4)cn23)CC(C)N1 (stereo not drawn) [compound 142] | – | < 10 | – | –
Cc1ncccc1-c1cnc2ccc(-c3ccc4oc(N)nc4c3)cc2n1 [compound 185] | – | < 1 | – | –
CN1CCN(C(=O)c2cnc3cnc(-c4ccc5oc(N)nc5c4)cn23)CC1 [compound 123] | – | < 10 | – | –

SMILES | IC50 (p110α/p85α; [1]) [µM] | IC50 (p110α/p85α; read-out: PI3K α IC50) [µM] | IC50 (p110α/p85α; read-out: PI3K α In Vitro IC50) [µM] | also measured
Nc1ncc(-c2cnc3ccc(-c4ccc5oc(N)nc5c4)cc3n2)cn1 [compound 210] | < 1 | – | – | –
Nc1nc2cc(-c3ccc4ncc(C(=O)N5CCOCC5)cc4c3)ccc2o1 [compound 97] | – | < 10 | – | –
Nc1nc2cc(-c3ccc4ncc(C(=O)N5CCC(O)CC5)n4c3)ccc2o1 [compound 162] | – | < 1 | – | IC50 (p110γ; read-out: PI3K γ IC50): < 10 µM
Nc1nc2cc(-c3ccc4ncn(C5CCOCC5)c4c3)ccc2o1 [compound 48] | – | < 10 | – | –
CS(=O)(=O)N1CCC(n2cnc3ccc(-c4ccc5oc(N)nc5c4)cc3c2=O)CC1 [compound 67] | – | < 1 | – | –
Nc1nc2cc(-c3cc4nccc(-c5ccncc5)c4s3)ccc2o1 [compound 14] | – | < 10 | – | IC50 (p110γ; read-out: PI3K γ IC50): < 10 µM
Nc1nc2cc(-c3ccc4nccc(NC5CCOCC5)c4c3)ccc2o1 [compound 32] | – | < 10 | – | IC50 (p110γ; read-out: PI3K γ IC50): < 10 µM
Nc1nc2cc(-c3ccc4ncn(C5CCC5)c(=O)c4c3)ccc2o1 [compound 205] | < 0.1 | – | – | –
CC(=O)Nc1cc2ccc(-c3cc(F)c4oc(N)nc4c3)cn2n1 [compound 401] | – | – | – | IC50 (p110γ; read-out: PI3K γ In Vitro IC50): < 10 µM
Nc1nc2ccc(-c3ccc4ncn(C5CCOCC5)c(=O)c4c3)cc2o1 [compound 63] | – | < 10 | – | –
Cc1cc2oc(N)nc2cc1-c1ccc2ncc(N3CC(N4CCOCC4)C3)nc2c1 [compound 353] | < 10 | – | – | –
Cc1ccn(C2CCN(C(=O)c3cnc4ccc(-c5ccc6oc(N)nc6c5)cn34)CC2)n1 [compound 297] | < 1 | – | – | IC50 (p110γ; [2]): < 10 µM
Nc1nc2cc(-c3ccc4ncc(C(=O)N5CC5)n4c3)ccc2o1 [compound 340] | < 1 | – | – | IC50 (p110γ; [2]): < 1 µM
Nc1ncc(-c2ccc3oc(N)nc3c2)cn1 [compound 233] | – | – | – | IC50 (p110γ; [2]): < 10 µM
Cc1cn(-c2cnc3ccc(-c4ccc5oc(N)nc5c4)cc3n2)cn1 [compound 177] | – | < 0.1 | – | IC50 (p110γ; read-out: PI3K γ IC50): < 1 µM
Nc1nc2cc(-c3ccc4ncc(N5CCCCC5)nc4c3)ccc2o1 [compound 175] | – | < 0.1 | – | IC50 (p110γ; read-out: PI3K γ IC50): < 10 µM
CN1CCN(CCn2cnc3ccc(-c4ccc5oc(N)nc5c4)cc3c2=O)CC1 [compound 280] | < 10 | – | – | –
CN1CCN(CCCn2cnc3ccc(-c4ccc5oc(N)nc5c4)cc3c2=O)CC1 [compound 291] | < 1 | – | – | –
Nc1nc2cc(-c3ccc4ncc(C(=O)N5CCOCC5)nc4c3)ccc2o1 [compound 158] | – | < 10 | – | –
Nc1nc2cc(-c3ccc4ncn(C5CCOCC5)c(=O)c4c3)ccc2o1 [compound 55] | – | < 1 | – | –
Nc1nc2cc(-c3ccc4ncc(C(=O)N5CCOCC5)n4c3)c(Cl)cc2o1 [compound 370] | < 10 | – | – | –
Nc1nc2cc(-c3ccc4ncc(-c5ccccc5)nc4c3)ccc2o1 [compound 180] | – | < 1 | – | –
Cn1c(N2CCOCC2)nc2cc(-c3ccc4oc(N)nc4c3)ccc2c1=O [compound 80] | – | < 1 | – | –
CN(C)C1CCN(C(=O)c2cnc3ccc(-c4ccc5oc(N)nc5c4)cn23)CC1 [compound 304] | < 1 | – | – | –

Further lines, with some results ahead:

IC50 (p110α/p85α; [1]) [µM] | IC50 (p110α/p85α; read-out: PI3K α IC50) [µM] | IC50 (p110α/p85α; read-out: PI3K α In Vitro IC50) [µM] | SMILES | also measured
< 1 | – | – | CN1CCN(c2cnc3ccc(-c4ccc5oc(N)nc5c4)cc3n2)C(=O)C1 [compound 390] | IC50 (p110γ; [2]): < 10 µM
– | – | < 10 | Nc1nc2nc(-c3ccc4ncc(C(=O)N5CCOCC5)n4c3)ccc2o1 [compound 412] | –
– | – | < 10 | CNc1noc2cc(-c3ccc4ncc(C(=O)N5CCOCC5)n4c3)ccc12 [compound 486] | IC50 (p110γ; read-out: PI3K γ In Vitro IC50): < 10 µM
– | – | < 10 | COc1ncc(-c2ccc3ncc(C(=O)N4CCOCC4)n3c2)cc1N [compound 414] | –
– | – | < 10 | O=C(c1cnc2ccc(-c3cncc(S(=O)(=O)Nc4ccccc4)c3)cn12)N1CCOCC1 [compound 447] | –
– | – | < 10 | Nc1nsc2c(-c3ccc4ncc(C(=O)N5CCOCC5)n4c3)cccc12 [compound 474] | –
– | – | < 1 | CC1(C)CN(C(=O)c2cnc3ccc(-c4ccc5oc(N)nc5c4)cn23)CCO1 [compound 513] | IC50 (p110γ; read-out: PI3K γ In Vitro IC50): < 10 µM
– | – | < 0.1 | Nc1nc2cc(-c3ccc4ncc(C(=O)N5CC[C@H](F)C5)n4c3)ccc2o1 [compound 476] | IC50 (p110γ; read-out: PI3K γ In Vitro IC50): < 0.1 µM
– | – | < 0.1 | O=C(c1cnc2ccc(-c3cccc4[nH]ncc34)cn12)N1CCOCC1 [compound 506] | –
– | – | < 10 | Nc1nc2cc(-c3cc(F)c4ncc(C(=O)N5CCOCC5)n4c3)ccc2o1 [compound 438] | –
– | – | < 1 | O=C(c1cnc2ccc(-c3ccc(Cl)c(NS(=O)(=O)c4ccccc4)c3)cn12)N1CCOCC1 [compound 459] | IC50 (p110γ; read-out: PI3K γ In Vitro IC50): < 1 µM
< 10 | – | – | Nc1nc2cc(-c3ccc4ncc(N5CCN(CC6CC6)CC5=O)nc4c3)ccc2o1 [compound 393] | –
– | – | < 10 | Nc1ncc(-c2ccc3ncc(C(=O)N4CCOCC4)n3c2)cc1C(F)(F)F [compound 410] | –
– | – | < 1 | CN1CCN(n2cnc3ccc(-c4ccc5oc(N)nc5c4)cc3c2=O)CC1 [compound 446] | –
– | – | < 1 | CC1(C)COCCN1C(=O)c1cnc2ccc(-c3ccc4oc(N)nc4c3)cn12 [compound 514] | –
– | – | < 10 | COc1ccc(-c2ccc3ncc(C(=O)N4CCOCC4)n3c2)cc1S(=O)(=O)Nc1ccccc1 [compound 444] | –
< 1 | – | – | Nc1nc2cc(-c3ccc4ncc(N5CCNCC5=O)nc4c3)ccc2o1 [compound 389] | IC50 (p110γ; [2]): < 10 µM
– | – | < 10 | Nc1nsc2cc(-c3ccc4ncc(C(=O)N5CCOCC5)n4c3)ccc12 [compound 489] | –
– | – | < 10 | C[C@H]1CN(c2cc3cc(-c4ccc5oc(N)nc5c4)ccc3nc2N)CCN1 [compound 403] | –
– | – | < 10 | CNS(=O)(=O)c1cncc(-c2ccc3ncc(C(=O)N4CCOCC4)n3c2)c1 [compound 450] | –
– | – | < 1 | Nc1nc2cc(-c3ccc4ncc(C(=O)N5CCC(F)CC5)n4c3)ccc2o1 [compound 503] | IC50 (p110γ; read-out: PI3K γ In Vitro IC50): < 0.1 µM
– | – | < 1 | Nc1nc2cc(-c3ccc4ncc(C(=O)N5CCC(N6CC(F)(F)C6)C5)n4c3)ccc2o1 (stereo not drawn) [compound 498] | IC50 (p110γ; read-out: PI3K γ In Vitro IC50): < 10 µM
– | – | < 0.1 | Nc1nc2cc(-c3ccc4ncc(C(=O)N5CC[C@H](N6CCOCC6)C5)n4c3)ccc2o1 [compound 465] | IC50 (p110γ; read-out: PI3K γ In Vitro IC50): < 1 µM
– | – | < 10 | O=C(c1cnc2ccc(-c3ccc4oc(NC5CC5)nc4c3)cn12)N1CCOCC1 [compound 409] | –
– | – | < 10 | Nc1nc2cccc(-c3ccc4ncc(C(=O)N5CCOCC5)n4c3)c2s1 [compound 485] | –
– | – | < 10 | Nc1cc(-c2ccc3ncc(C(=O)N4CCOCC4)n3c2)cnc1Cl [compound 415] | –
< 10 | – | – | CCN1CCN(c2cnc3ccc(-c4ccc5oc(N)nc5c4)cc3n2)C(=O)C1 [compound 391] | –
– | – | < 10 | CS(=O)(=O)Nc1cc(-c2ccc3ncc(C(=O)N4CCOCC4)n3c2)ccc1Cl [compound 460] | –
– | – | < 1 | O=C(c1cnc2ccc(-c3cnc(Cl)c4[nH]ncc34)cn12)N1CCOCC1 [compound 516] | –
– | – | < 10 | Nc1nc2ccc(-c3cc(F)c4ncc(C(=O)N5CCOCC5)n4c3)cc2o1 [compound 439] | –
